In patent US10004786B2 (Zealand Pharma A/S, priority 2009, dated 2018):
Numbered stars: 1 amine (or outer) side, 2 acyl side, 3 side chain; on linkers, the order of the positions; unused ones are H or OH. Square brackets hold non-standard residues; d marks the D form. Side chains are listed from the residue outwards. Peptide text beside a SMILES is read from it. * marks the point of attachment. γGlu = O=C(O)[C@H](CCC(=O)[*:2])N[*:1]; Palmitoyl = CCCCCCCCCCCCCCCC(=O)*; Aib = CC(C)(N)C(=O)O

Experiments:
[1] = target: T1, human GLP-1R (Homo sapiens, UniProt P43220); experiment: GLP-1 receptor efficacy assay (cAMP formation in HEK293 cells expressing human GLP-1R); format: cell-based; conditions: Table 1a, HEK293 cells expressing hGLP-1R
T1 construct: expressed in transfected cells
Protocol: (§1) The 5′-end primers additionally encoded a near Kozak consensus sequence to ensure efficient translation.
(§2) 48 hr after transfection cells were seeded for limited dilution cloning and selected with 1 mg/ml G418 in the culture medium.
(§3) On the day of analysis, growth medium was removed and the cells washed once with 200 μl Tyrode buffer. […] The reaction was stopped by addition of 25 μl 0.5 M HCl and incubated on ice for 60 min. The cAMP content was estimated using the FlashPlate® cAMP kit from Perkin-Elmer.
(§4) Efficacy of the GluGLP-1 agonists were estimated by exposing cells expressing hGlucagonR and hGLP-1R to the listed acylated compounds at increasing concentrations and measuring the formed cAMP as described in Methods.

[2] = target: T2, human Glucagon-R (Homo sapiens, UniProt P47871); experiment: Glucagon receptor efficacy assay (cAMP formation in HEK293 cells expressing human Glucagon-R); format: cell-based; conditions: Table 1a, HEK293 cells expressing hGlucagonR, read-out: EC50 (nM) GluR
T2 construct: expressed in transfected cells
Protocol: as §1, §2, §3, §4

T1 sequence (P43220 24-463): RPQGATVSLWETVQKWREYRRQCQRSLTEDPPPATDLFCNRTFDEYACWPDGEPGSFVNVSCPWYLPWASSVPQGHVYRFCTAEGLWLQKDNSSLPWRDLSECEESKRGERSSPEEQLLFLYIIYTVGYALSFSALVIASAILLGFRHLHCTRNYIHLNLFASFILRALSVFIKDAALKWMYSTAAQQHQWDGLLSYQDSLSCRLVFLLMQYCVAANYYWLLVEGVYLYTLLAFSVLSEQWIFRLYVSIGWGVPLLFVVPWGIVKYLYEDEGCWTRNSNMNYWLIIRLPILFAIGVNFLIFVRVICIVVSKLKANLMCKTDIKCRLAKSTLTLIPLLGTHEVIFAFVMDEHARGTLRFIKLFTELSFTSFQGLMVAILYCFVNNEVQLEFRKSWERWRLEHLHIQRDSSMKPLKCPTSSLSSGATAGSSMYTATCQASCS
T2 sequence (P47871 26-477): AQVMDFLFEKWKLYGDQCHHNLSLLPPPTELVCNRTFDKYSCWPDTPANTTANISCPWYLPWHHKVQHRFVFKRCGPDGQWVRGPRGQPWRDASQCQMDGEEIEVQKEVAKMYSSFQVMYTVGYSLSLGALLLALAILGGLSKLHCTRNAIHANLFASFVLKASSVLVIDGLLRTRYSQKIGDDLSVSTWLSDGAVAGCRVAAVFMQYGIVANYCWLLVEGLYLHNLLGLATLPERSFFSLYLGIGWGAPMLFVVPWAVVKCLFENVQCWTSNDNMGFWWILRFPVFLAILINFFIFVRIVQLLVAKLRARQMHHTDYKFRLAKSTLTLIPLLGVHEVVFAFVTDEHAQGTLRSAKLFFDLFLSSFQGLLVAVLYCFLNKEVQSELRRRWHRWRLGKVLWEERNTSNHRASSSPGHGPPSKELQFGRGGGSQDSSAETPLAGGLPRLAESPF

EC50 [1] [nM] | EC50 [2] [nM] | SMILES
0.14 |  | CCCCCCCCCCCCCCCC(=O)NCCCC[C@H](NC(=O)[C@H](CO)NC(=O)[C@H](CC(=O)O)NC(=O)[C@H](CC(C)C)NC(=O)[C@H](Cc1ccc(O)cc1)NC(=O)[C@H](CCCCN)NC(=O)[C@H](CO)NC(=O)[C@H](Cc1ccc(O)cc1)NC(=O)[C@H](CC(=O)O)NC(=O)[C@H](CO)NC(=O)[C@@H](NC(=O)[C@H](Cc1ccccc1)NC(=O)[C@@H](NC(=O)CNC(=O)[C@H](CCC(N)=O)NC(=O)C(C)(C)NC(=O)[C@@H](N)Cc1c[nH]cn1)[C@@H](C)O)[C@@H](C)O)C(=O)N[C@@H](C)C(=O)N[C@@H](C)C(=O)N[C@@H](Cc1c[nH]cn1)C(=O)N[C@@H](CC(=O)O)C(=O)N[C@@H](Cc1ccccc1)C(=O)N[C@H](C(=O)N[C@@H](CCC(=O)O)C(=O)N[C@@H](Cc1c[nH]c2ccccc12)C(=O)N[C@@H](CC(C)C)C(=O)N[C@@H](CC(C)C)C(=O)N[C@@H](CO)C(=O)N[C@@H](C)C(N)=O)C(C)C [Compound 23]
0.2 | 0.18 | CCCCCCCCCCCCCCCC(=O)N[C@@H](CCC(=O)NCCCC[C@H](NC(=O)[C@H](CCC(=O)O)NC(=O)[C@H](CC(=O)O)NC(=O)[C@H](CC(C)C)NC(=O)[C@H](Cc1ccc(O)cc1)NC(=O)[C@H](CCCCN)NC(=O)[C@H](CO)NC(=O)[C@H](Cc1ccc(O)cc1)NC(=O)[C@H](CC(=O)O)NC(=O)[C@H](CO)NC(=O)[C@@H](NC(=O)[C@H](Cc1ccccc1)NC(=O)[C@@H](NC(=O)CNC(=O)[C@H](CCC(N)=O)NC(=O)C(C)(C)NC(=O)[C@@H](N)Cc1c[nH]cn1)[C@@H](C)O)[C@@H](C)O)C(=O)N[C@@H](C)C(=O)N[C@@H](C)C(=O)N[C@@H](Cc1c[nH]cn1)C(=O)N[C@@H](CC(=O)O)C(=O)N[C@@H](Cc1ccccc1)C(=O)N[C@H](C(=O)N[C@@H](CCC(=O)O)C(=O)N[C@@H](Cc1c[nH]c2ccccc12)C(=O)N[C@@H](CC(C)C)C(=O)N[C@@H](CC(C)C)C(=O)N[C@@H](CO)C(=O)N[C@@H](C)C(N)=O)C(C)C)C(=O)O [Compound 40] (H-H[Aib]QGTFTSDYSKYLDEK([γGlu-Palmitoyl])AAHDFVEWLLSA-NH2)
